Data taken from ChEMBL document CHEMBL5096208, “Installation of Pargyline, a LSD1 Inhibitor, in the HDAC Inhibitory Template Culminated in the Identification of a Tractable Antiprostate Cancer Agent” (J Med Chem, 2021).
pIC50: −log10 of the molar value. Calls of active or inactive are those of the source. The rule behind the calls is not given here.

What was measured:
Histone deacetylase 3 = Histone deacetylase 3 (Homo sapiens, UniProt O15379); test: Inhibition of human HDAC3 (379 to 382 residues) using RHKKAc as flurogenic substrate
Histone deacetylase 3, sequence (O15379 whole entry, the tested form may be a part): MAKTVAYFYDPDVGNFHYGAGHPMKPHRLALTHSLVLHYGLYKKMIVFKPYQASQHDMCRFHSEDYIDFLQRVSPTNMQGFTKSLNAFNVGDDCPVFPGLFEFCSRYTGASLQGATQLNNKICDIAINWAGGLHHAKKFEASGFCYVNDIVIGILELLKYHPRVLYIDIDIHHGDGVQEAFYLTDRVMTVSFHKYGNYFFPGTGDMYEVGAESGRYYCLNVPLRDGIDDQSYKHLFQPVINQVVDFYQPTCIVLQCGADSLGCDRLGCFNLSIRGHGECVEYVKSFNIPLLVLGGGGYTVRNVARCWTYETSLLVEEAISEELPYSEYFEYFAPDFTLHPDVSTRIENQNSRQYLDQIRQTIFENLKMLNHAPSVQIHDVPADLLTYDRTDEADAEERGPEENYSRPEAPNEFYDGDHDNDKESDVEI

PC-3 = test: Antiproliferative activity against human PC-3 cells assessed as cell growth inhibition at upto 10 uM incubated for 48 hrs by MTT assay; format: functional, cell-based
[1] = Metabolic stability in human hepatocyte assessed as parent compound remaining at 10 uM incubated for 240 mins by LC-MS/MS analysis; format: ADME, cell-based; settings: hepatocytes, read-out: Stability
[2] = Tmax in Sprague-Dawley rat at 25 mg/kg, po formulated using SMEDDS administered once via gavage measured upto 24 hrs post dose by UPLC-MS/MS analysis; format: ADME, organism-based; settings: in vivo
Homo sapiens = species on record: Homo sapiens; test: Selectivity ratio of IC50 for human HDAC5 to IC50 for human HDAC6
[3] = Metabolic stability in Sprague-Dawley rat hepatocyte assessed as intrinsic clearance at 10 uM by LC-MS/MS analysis; format: ADME, cell-based; settings: hepatocytes, read-out: CLH
Histone deacetylase 4 = Histone deacetylase 4 (Homo sapiens, UniProt P56524); test: Inhibition of human HDAC4 using Boc-Lys(trifluoroacetyl)-AMC as flurogenic substrate
Histone deacetylase 4, sequence (P56524 whole entry): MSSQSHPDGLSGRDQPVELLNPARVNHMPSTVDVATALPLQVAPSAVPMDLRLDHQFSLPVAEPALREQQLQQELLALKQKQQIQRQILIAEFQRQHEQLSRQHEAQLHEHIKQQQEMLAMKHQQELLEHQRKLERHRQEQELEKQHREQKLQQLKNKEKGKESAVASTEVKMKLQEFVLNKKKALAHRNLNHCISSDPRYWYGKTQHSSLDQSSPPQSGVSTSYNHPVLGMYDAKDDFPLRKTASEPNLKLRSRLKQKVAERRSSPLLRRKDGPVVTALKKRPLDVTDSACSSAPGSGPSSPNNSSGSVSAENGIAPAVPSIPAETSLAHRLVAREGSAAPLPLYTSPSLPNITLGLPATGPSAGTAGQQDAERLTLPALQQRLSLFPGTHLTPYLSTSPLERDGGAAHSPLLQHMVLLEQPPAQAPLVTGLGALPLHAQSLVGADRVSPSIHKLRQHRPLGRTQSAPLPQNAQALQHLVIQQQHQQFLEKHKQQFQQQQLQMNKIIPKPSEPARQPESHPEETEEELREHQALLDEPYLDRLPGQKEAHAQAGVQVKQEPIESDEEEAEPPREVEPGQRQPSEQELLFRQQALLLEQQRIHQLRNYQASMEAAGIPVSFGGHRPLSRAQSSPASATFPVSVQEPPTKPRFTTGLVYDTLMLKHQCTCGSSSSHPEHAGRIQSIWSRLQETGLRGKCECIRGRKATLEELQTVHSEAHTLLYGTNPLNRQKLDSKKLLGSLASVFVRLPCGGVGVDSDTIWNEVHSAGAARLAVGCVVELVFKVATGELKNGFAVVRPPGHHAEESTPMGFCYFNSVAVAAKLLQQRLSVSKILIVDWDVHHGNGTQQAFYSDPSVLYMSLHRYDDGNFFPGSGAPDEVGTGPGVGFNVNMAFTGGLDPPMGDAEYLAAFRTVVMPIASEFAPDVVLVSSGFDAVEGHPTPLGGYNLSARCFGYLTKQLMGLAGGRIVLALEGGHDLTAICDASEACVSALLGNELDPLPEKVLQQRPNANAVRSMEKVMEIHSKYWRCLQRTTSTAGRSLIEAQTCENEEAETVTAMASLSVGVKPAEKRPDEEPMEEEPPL

DU-145 [4] = test: Antitumor activity against human DU-145 cells xenografted in athymic nude mouse assessed as tumor growth inhibition at 50 mg/kg, po qd measured upto 60 days by caliper method relative to control; format: functional; settings: DU-145, 1440 h, time <= 60 day, read-out: TGI
DU-145 [5] = test: Induction of H3K4ME2 accumulation in human DU-145 cells at 0.5 to 10 uM incubated for 48 hrs by Western blot analysis; format: functional, cell-based; settings: dose 0.5-10 µM
Histone deacetylase 8 = target: T1, Histone deacetylase 8 (Homo sapiens, UniProt Q9BY41); test: Inhibition of human HDAC8 (379 to 382 residues) using RHKAcKAc as flurogenic substrate
T1 sequence (Q9BY41 whole entry): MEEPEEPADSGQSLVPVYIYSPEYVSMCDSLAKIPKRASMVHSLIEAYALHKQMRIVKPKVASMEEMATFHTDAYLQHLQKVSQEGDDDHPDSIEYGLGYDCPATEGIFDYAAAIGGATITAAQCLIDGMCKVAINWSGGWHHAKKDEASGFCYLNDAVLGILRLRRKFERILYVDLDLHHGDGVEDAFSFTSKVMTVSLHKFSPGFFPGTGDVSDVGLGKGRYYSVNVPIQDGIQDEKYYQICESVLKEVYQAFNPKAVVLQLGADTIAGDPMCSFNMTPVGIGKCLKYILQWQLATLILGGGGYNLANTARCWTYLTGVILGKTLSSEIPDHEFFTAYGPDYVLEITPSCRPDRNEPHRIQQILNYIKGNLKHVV

DU-145 [6] = test: Upregulation of acetyl-histone H3 in human DU-145 cells at 0.625 to 5 uM by Western blot analysis; format: functional, cell-based; settings: dose 0.625-5 µM

C#CCN(C)Cc1cccc(NC(=O)CCCCCCC(=O)NO)c1
pIC50 (Histone deacetylase 3): 6.88
Activity (PC-3): Active
remaining at 4 h, 10 µM [1]: 83.3%
Tmax [2]: 54 min
Ratio IC50 (Homo sapiens): 670
CLint scaled at 10 µM [3]: 90.2 mL/min/kg
pIC50 (Histone deacetylase 4): < 5.00
inhibition in vivo at 50 mg/kg (DU-145 [4]): 65.8%
Activity (DU-145 [5]): Active
pIC50 (Histone deacetylase 8): 6.68
Activity (DU-145 [6]): Active
